For the test, the target named is T1, human CCR10 (Homo sapiens, UniProt P46092).
T1 construct: expressed in transfected cells; host or cells: KJMGER8 cells (Namalwa cell-derived line), beta-estradiol-induced; hCCR10G16 cells
T1 sequence (P46092 1-362): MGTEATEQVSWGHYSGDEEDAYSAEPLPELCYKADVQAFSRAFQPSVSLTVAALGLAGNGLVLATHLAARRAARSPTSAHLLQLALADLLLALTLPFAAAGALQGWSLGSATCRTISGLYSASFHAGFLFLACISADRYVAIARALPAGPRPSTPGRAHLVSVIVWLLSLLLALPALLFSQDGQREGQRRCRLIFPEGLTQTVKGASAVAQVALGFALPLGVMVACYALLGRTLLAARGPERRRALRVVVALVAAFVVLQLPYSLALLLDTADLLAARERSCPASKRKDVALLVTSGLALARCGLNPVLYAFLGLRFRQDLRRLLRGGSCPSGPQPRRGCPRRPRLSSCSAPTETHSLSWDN
Description: CCR10 antagonistic effect: calcium assay of human CCR10 (CTACK-induced increase of intracellular calcium in hCCR10G16 cells). The class given is cell-based. Conditions: at a concentration of not more than 1000 nmol/L; human CCR10-expressing hCCR10G16 cells, 300 nmol/L CTACK added; read-out: inhibition of increase in the calcium ion concentration. Summed up: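 KJMGER8-derived hCCR10G16 cells (CCR10 plus Gα16, induced 24 h with 10 nmol/L β-estradiol), Fluo-3 loaded, preincubated with compound 30 min at 37 °C. Stimulated with CTACK (300 nmol/L solution before addition); calcium read ~5 min by FDSS, max−min fluorescence; % inhibition vs control.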
For orientation: A change in cytosolic calcium serves as a functional read-out for many receptors and channels.

A value given as a limit tells only on which side of the number the result lay.

Take `Cc1c(S(=O)(=O)Nc2ccon2)ncc(C(=O)N2CCC(c3ccc(F)cc3)CC2)c1Nc1cccc(F)c1Cl` [Compound 272, 4-(2-chloro-3-fluorophenylamino)-5-[4-(4-fluorophenyl)piperidine-1-carbonyl]-N-(isoxazol-3-yl)-3-methylpyridine-2-sulfonamide]: the inhibition at up to 1 µM was ≥ 50%.
The same measure for `Cc1c(S(=O)(=O)Nc2ccon2)ncc(C(=O)N2CCC(c3ccc(F)cc3)CC2)c1Nc1ccc(F)cc1Cl` [Compound 273, 4-(2-chloro-4-fluorophenylamino)-5-[4-(4-fluorophenyl)piperidine-1-carbonyl]-N-(isoxazol-3-yl)-3-methylpyridine-2-sulfonamide]: ≥ 50%; for `Cc1c(S(=O)(=O)Nc2ccon2)ncc(C(=O)N2CCC(c3ccc(F)cc3)CC2)c1Nc1cc(F)ccc1Cl` [Compound 274, 4-(2-chloro-5-fluorophenylamino)-5-[4-(4-fluorophenyl)piperidine-1-carbonyl]-N-(isoxazol-3-yl)-3-methylpyridine-2-sulfonamide]: ≥ 50%.
Take `Cc1c(S(=O)(=O)Nc2ccon2)ncc(C(=O)N2CCC(c3ccc(F)cc3)CC2)c1Nc1cc(F)cc(F)c1F` [Compound 275, 5-[4-(4-fluorophenyl)piperidine-1-carbonyl]-N-(isoxazol-3-yl)-3-methyl-4-(2,3,5-trifluorophenylamino)pyridine-2-sulfonamide]: the inhibition at up to 1 µM is ≥ 50%.
The same measure for `Cc1cccc(Nc2c(C(=O)N3CCC(c4ccc(F)cc4)CC3)cnc(S(=O)(=O)Nc3cc(C)ns3)c2C)c1` [Compound 276, 5-[4-(4-fluorophenyl)piperidine-1-carbonyl]-3-methyl-N-(3-methylisothiazol-5-yl)-4-(m-tolylamino)pyridine-2-sulfonamide]: ≥ 50%; for `Cc1cc(NS(=O)(=O)c2ncc(C(=O)N3CCC(c4ccc(F)cc4)CC3)c(Nc3ccccc3)c2C)sn1` [Compound 277, 5-[4-(4-fluorophenyl)piperidine-1-carbonyl]-3-methyl-N-(3-methylisothiazol-5-yl)-4-(phenylamino)pyridine-2-sulfonamide]: ≥ 50%.
The same measure for `NS(=O)(=O)c1ncc(C(=O)N2CCN(c3ccc(F)cc3)C(=O)C2)c(NC2(c3ccccc3)CC2)c1Cl` [Compound 278, 3-chloro-5-[4-(4-fluorophenyl)-3-oxopiperazine-1-carbonyl]-4-(1-phenylcyclopropylamino)pyridine-2-sulfonamide]: ≥ 50%; for `Cc1c(S(=O)(=O)Nc2ccon2)ncc(C(=O)N2CCC(c3ccc(F)cc3)CC2)c1Nc1ccc(Cl)c(Cl)c1` [Compound 279, 4-(3,4-dichlorophenylamino)-5-[4-(4-fluorophenyl)piperidine-1-carbonyl]-N-(isoxazol-3-yl)-3-methylpyridine-2-sulfonamide]: ≥ 50%; for `Cc1c(S(=O)(=O)Nc2ccon2)ncc(C(=O)N2CCC(c3ccc(F)cc3)CC2)c1Nc1ccc(Cl)cc1Cl` [Compound 280, 4-(2,4-dichlorophenylamino)-5-[4-(4-fluorophenyl)piperidine-1-carbonyl]-N-(isoxazol-3-yl)-3-methylpyridine-2-sulfonamide]: ≥ 50%.
As for `Cc1c(S(=O)(=O)Nc2ccon2)ncc(C(=O)N2CCC(c3ccc(F)cc3)CC2)c1Nc1cc(Cl)ccc1Cl` [Compound 281, 4-(2,5-dichlorophenylamino)-5-[4-(4-fluorophenyl)piperidine-1-carbonyl]-N-(isoxazol-3-yl)-3-methylpyridine-2-sulfonamide], the figure is ≥ 50%.
For the molecule `CN(Nc1c(C(=O)N2CCC(c3ccc(F)cc3)CC2)cnc(S(N)(=O)=O)c1Cl)c1ccccc1` [Compound 282, 3-chloro-5-[4-(4-fluorophenyl)piperidine-1-carbonyl]-4-(2-methyl-2-phenylhydrazinyl)pyridine-2-sulfonamide], the inhibition at up to 1 µM is ≥ 50%.
As for `NS(=O)(=O)c1ncc(C(=O)N2CC(c3ccc(F)cc3)C2)c(Nc2cccc(Cl)c2)c1Cl` [Compound 283, 3-chloro-4-(3-chlorophenylamino)-5-[3-(4-fluorophenyl)azetidine-1-carbonyl]pyridine-2-sulfonamide], the figure is ≥ 50%; as for `Cc1c(S(N)(=O)=O)ncc(C(=O)N2CC(c3ccc(F)cc3)C2)c1NCc1ccccc1` [Compound 284, 4-(benzylamino)-5-[3-(4-fluorophenyl)azetidine-1-carbonyl]-3-methylpyridine-2-sulfonamide], ≥ 50%; as for `Cc1c(S(N)(=O)=O)ncc(C(=O)N2CC(c3ccc(F)cc3)C2)c1Nc1cccc(Cl)c1` [Compound 285, 4-(3-chlorophenylamino)-5-[3-(4-fluorophenyl)azetidine-1-carbonyl]-3-methylpyridine-2-sulfonamide], ≥ 50%.
The same measure for `CCc1c(S(=O)(=O)Nc2ccon2)ncc(C(=O)N2CCC(c3ccc(F)cc3)CC2)c1Nc1ccccc1C` [Compound 287, 3-ethyl-5-[4-(4-fluorophenyl)piperidine-1-carbonyl]-N-(isoxazol-3-yl)-4-(o-tolylamino)pyridine-2-sulfonamide]: ≥ 50%; for `N#Cc1ccc(C#N)c(Nc2c(C(=O)N3CCC(c4ccc(F)cc4)CC3)cnc(S(N)(=O)=O)c2Cl)c1` [Compound 288, 3-chloro-4-(2,5-dicyanophenylamino)-5-[4-(4-fluorophenyl)piperidine-1-carbonyl]pyridine-2-sulfonamide]: ≥ 50%.
Regarding `Cc1ccc(Oc2c(C(=O)N3CCC(c4ccc(F)cc4)CC3)cnc(S(N)(=O)=O)c2C)cc1` [Compound 289, 5-[4-(4-fluorophenyl)piperidine-1-carbonyl]-3-methyl-4-(p-tolyloxy)pyridine-2-sulfonamide], the inhibition at up to 1 µM is ≥ 50%.
The same measure for `N#Cc1ccc(Cl)cc1Nc1c(C(=O)N2CCC(c3ccc(F)cc3)CC2)cnc(S(N)(=O)=O)c1Cl` [Compound 290, 3-chloro-4-(5-chloro-2-cyanophenylamino)-5-[4-(4-fluorophenyl)piperidine-1-carbonyl]pyridine-2-sulfonamide]: ≥ 50%; for `Cc1ccccc1Nc1c(C(=O)N2CC(c3ccc(F)cc3)C2)cnc(S(=O)(=O)Nc2ccon2)c1C` [Compound 292, 5-[3-(4-fluorophenyl)azetidine-1-carbonyl]-N-(isoxazol-3-yl)-3-methyl-4-(o-tolylamino)pyridine-2-sulfonamide]: ≥ 50%; for `CCc1c(S(=O)(=O)Nc2ccon2)ncc(C(=O)N2CCC(c3ccc(F)cc3)CC2)c1Nc1cccc(F)c1C` [Compound 294, 3-ethyl-4-(3-fluoro-2-methylphenylamino)-5-[4-(4-fluorophenyl)piperidine-1-carbonyl]-N-(isoxazol-3-yl)pyridine-2-sulfonamide]: ≥ 50%.
As for `COC1(c2ccc(F)cc2)CCN(C(=O)c2cnc(S(N)(=O)=O)c(Cl)c2NC2(c3ccccc3)CC2)CC1` [Compound 295, 3-chloro-5-[4-(4-fluorophenyl)-4-methoxypiperidine-1-carbonyl]-4-(1-phenylcyclopropylamino)pyridine-2-sulfonamide], the figure is ≥ 50%; as for `NS(=O)(=O)c1ncc(C(=O)N2CCC3(CC2)COc2ccccc23)c(NC2(c3ccccc3)CC2)c1Cl` [Compound 297, 3-chloro-4-(1-phenylcyclopropylamino)-5-(2H-spiro[benzofuran-3,4′-piperidin]-1′-ylcarbonyl)pyridine-2-sulfonamide], ≥ 50%.
As for `Cc1c(S(=O)(=O)Nc2ccon2)ncc(C(=O)N2CCC(c3ccc(F)cc3)CC2)c1Nc1ccc(C#N)cc1` [Compound 298, 4-(4-cyanophenylamino)-5-[4-(4-fluorophenyl)piperidine-1-carbonyl]-N-(isoxazol-3-yl)-3-methylpyridine-2-sulfonamide], the figure is ≥ 50%; as for `Cc1cc(NS(=O)(=O)c2ncc(C(=O)N3CCC(c4ccc(F)cc4)CC3)c(Nc3ccc(F)cc3)c2C)sn1` [Compound 299, 5-[4-(4-fluorophenyl)piperidine-1-carbonyl]-4-(4-fluorophenylamino)-3-methyl-N-(3-methylisothiazol-5-yl)pyridine-2-sulfonamide], ≥ 50%.
As for `Cc1ccc(Nc2c(C(=O)N3CCC(c4ccc(F)cc4)CC3)cnc(S(=O)(=O)Nc3cc(C)ns3)c2C)cc1` [Compound 300, 5-[4-(4-fluorophenyl)piperidine-1-carbonyl]-3-methyl-N-(3-methylisothiazol-5-yl)-4-(p-tolylamino)pyridine-2-sulfonamide], the inhibition at up to 1 µM was ≥ 50%.
As for `Cc1cc(NS(=O)(=O)c2ncc(C(=O)N3CCC(c4ccc(F)cc4)CC3)c(Nc3ccc(F)c(F)c3)c2C)sn1` [Compound 301, 4-(3,4-difluorophenylamino)-5-[4-(4-fluorophenyl)piperidine-1-carbonyl]-3-methyl-N-(3-methylisothiazol-5-yl)pyridine-2-sulfonamide], the figure is ≥ 50%; as for `NS(=O)(=O)c1ncc(C(=O)N2CCC(c3ccc(F)cc3)CC2)c(Nc2ccc(Cl)cc2)c1Cl` [Compound 302, 3-chloro-4-(4-chlorophenylamino)-5-[4-(4-fluorophenyl)piperidine-1-carbonyl]pyridine-2-sulfonamide], ≥ 50%.

The values are drawn from patent US9701689B2, “Substituted pyridines and pyridazines as CCR10 receptor inhibitors” (KYOWA HAKKO KIRIN CO., LTD., priority 2012, dated 2017).
